Reference: the supplement of paper PMC10307832

Experiments:
Assay in all cases: relative viability (nuclei count vs DMSO), 5 days (fraction); higher = more cells survive
BEN = tested on: BEN
Method in brief: (§1)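 One day after seeding in 1536-well plates, lung cancer cell lines were dosed by pin tool. Dosing was either single-drug or a fixed anchor-drug dose plus five library-drug doses (not always all listed) in √10 steps. After 5 days, nuclei were stained in one fix-and-stain step and counted on 4× images, and relative viability is the nuclei count of treated wells over that of vehicle wells, given as the median of duplicate plates.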

CAL-12T = tested on: CAL-12T
Method in brief: as §1

EKVX = tested on: EKVX
Method in brief: as §1

HCC-366 = tested on: HCC-366
Method in brief: as §1

HCC-44 = tested on: HCC-44
Method in brief: as §1

LOU-NH91 = tested on: LOU-NH91
Method in brief: as §1

LU99A = tested on: LU99A
Method in brief: as §1

NCI-H1355 = tested on: NCI-H1355
Method in brief: as §1

NCI-H1395 = tested on: NCI-H1395
Method in brief: as §1

NCI-H1437 = tested on: NCI-H1437
Method in brief: as §1

NCI-H1650 = tested on: NCI-H1650
Method in brief: as §1

NCI-H1651 = tested on: NCI-H1651
Method in brief: as §1

NCI-H1734 = tested on: NCI-H1734
Method in brief: as §1

NCI-H1755 = tested on: NCI-H1755
Method in brief: as §1

NCI-H1975 = tested on: NCI-H1975
Method in brief: as §1

NCI-H2023 = tested on: NCI-H2023
Method in brief: as §1

NCI-H2085 = tested on: NCI-H2085
Method in brief: as §1

NCI-H2342 = tested on: NCI-H2342
Method in brief: as §1

NCI-H358 = tested on: NCI-H358
Method in brief: as §1

NCI-H441 = tested on: NCI-H441
Method in brief: as §1

NCI-H460 = tested on: NCI-H460
Method in brief: as §1

NCI-H838 = tested on: NCI-H838
Method in brief: as §1

## NC(=O)Nc1cc(-c2cccc(F)c2)sc1C(=O)N[C@H]1CCCNC1 [AZD7762] + O=C(c1cc(Cc2n[nH]c(=O)c3ccccc23)ccc1F)N1CCN(C(=O)C2CC2)CC1 [Olaparib] (partner 8 µM)
BEN; first compound 0.01 µM
  relative viability: 1.05
BEN; first compound 0.03162 µM
  relative viability: 1.04
BEN; first compound 0.1 µM
  relative viability: 0.966
BEN; first compound 0.3162 µM
  relative viability: 1.01
BEN; first compound 1 µM
  relative viability: 0.658
CAL-12T; first compound 0.01 µM
  relative viability: 0.908
CAL-12T; first compound 0.03162 µM
  relative viability: 0.756
CAL-12T; first compound 0.1 µM
  relative viability: 0.865
CAL-12T; first compound 0.3162 µM
  relative viability: 0.489
CAL-12T; first compound 1 µM
  relative viability: 0.2
EKVX; first compound 0.01 µM
  relative viability: 0.82
EKVX; first compound 0.03162 µM
  relative viability: 1.04
EKVX; first compound 0.1 µM
  relative viability: 0.62
EKVX; first compound 0.3162 µM
  relative viability: 0.844
EKVX; first compound 1 µM
  relative viability: 0.393
HCC-366; first compound 0.01 µM
  relative viability: 0.364
HCC-366; first compound 0.03162 µM
  relative viability: 0.305
HCC-366; first compound 0.1 µM
  relative viability: 0.278
HCC-366; first compound 0.3162 µM
  relative viability: 0.157
HCC-366; first compound 1 µM
  relative viability: 0.0818
HCC-44; first compound 0.01 µM
  relative viability: 0.986
HCC-44; first compound 0.03162 µM
  relative viability: 0.922
HCC-44; first compound 0.1 µM
  relative viability: 1.01
HCC-44; first compound 0.3162 µM
  relative viability: 0.964
HCC-44; first compound 1 µM
  relative viability: 0.954
LOU-NH91; first compound 0.01 µM
  relative viability: 0.915
LOU-NH91; first compound 0.03162 µM
  relative viability: 0.914
LOU-NH91; first compound 0.1 µM
  relative viability: 0.867
LOU-NH91; first compound 0.3162 µM
  relative viability: 0.834
LOU-NH91; first compound 1 µM
  relative viability: 0.571
LU99A; first compound 0.01 µM
  relative viability: 0.253
LU99A; first compound 0.03162 µM
  relative viability: 0.246
LU99A; first compound 0.1 µM
  relative viability: 0.202
LU99A; first compound 0.3162 µM
  relative viability: 0.148
LU99A; first compound 1 µM
  relative viability: 0.124
NCI-H1355; first compound 0.01 µM
  relative viability: 0.705
NCI-H1355; first compound 0.03162 µM
  relative viability: 0.798
NCI-H1355; first compound 0.1 µM
  relative viability: 0.862
NCI-H1355; first compound 0.3162 µM
  relative viability: 0.862
NCI-H1355; first compound 1 µM
  relative viability: 0.615
NCI-H1395; first compound 0.01 µM
  relative viability: 0.505
NCI-H1395; first compound 0.03162 µM
  relative viability: 0.415
NCI-H1395; first compound 0.1 µM
  relative viability: 0.393
NCI-H1395; first compound 0.3162 µM
  relative viability: 0.387
NCI-H1395; first compound 1 µM
  relative viability: 0.354
NCI-H1437; first compound 0.01 µM
  relative viability: 0.696
NCI-H1437; first compound 0.03162 µM
  relative viability: 0.648
NCI-H1437; first compound 0.1 µM
  relative viability: 0.621
NCI-H1437; first compound 0.3162 µM
  relative viability: 0.612
NCI-H1437; first compound 1 µM
  relative viability: 0.433
NCI-H1650; first compound 0.01 µM
  relative viability: 0.787
NCI-H1650; first compound 0.03162 µM
  relative viability: 0.863
NCI-H1650; first compound 0.1 µM
  relative viability: 0.905
NCI-H1650; first compound 0.3162 µM
  relative viability: 0.658
NCI-H1650; first compound 1 µM
  relative viability: 0.23
NCI-H1651; first compound 0.01 µM
  relative viability: 0.184
NCI-H1651; first compound 0.03162 µM
  relative viability: 0.202
NCI-H1651; first compound 0.1 µM
  relative viability: 0.156
NCI-H1651; first compound 0.3162 µM
  relative viability: 0.153
NCI-H1651; first compound 1 µM
  relative viability: 0.137
NCI-H1734; first compound 0.01 µM
  relative viability: 0.746
NCI-H1734; first compound 0.03162 µM
  relative viability: 0.663
NCI-H1734; first compound 0.1 µM
  relative viability: 0.72
NCI-H1734; first compound 0.3162 µM
  relative viability: 0.491
NCI-H1734; first compound 1 µM
  relative viability: 0.316
NCI-H1755; first compound 0.01 µM
  relative viability: 1.01
NCI-H1755; first compound 0.03162 µM
  relative viability: 0.92
NCI-H1755; first compound 0.1 µM
  relative viability: 0.957
NCI-H1755; first compound 0.3162 µM
  relative viability: 0.855
NCI-H1755; first compound 1 µM
  relative viability: 0.619
NCI-H1975; first compound 0.01 µM
  relative viability: 0.767
NCI-H1975; first compound 0.03162 µM
  relative viability: 0.682
NCI-H1975; first compound 0.1 µM
  relative viability: 0.638
NCI-H1975; first compound 0.3162 µM
  relative viability: 0.538
NCI-H1975; first compound 1 µM
  relative viability: 0.401
NCI-H2023; first compound 0.01 µM
  relative viability: 0.463
NCI-H2023; first compound 0.03162 µM
  relative viability: 0.323
NCI-H2023; first compound 0.1 µM
  relative viability: 0.171
NCI-H2023; first compound 0.3162 µM
  relative viability: 0.111
NCI-H2023; first compound 1 µM
  relative viability: 0.0963
NCI-H2085; first compound 0.01 µM
  relative viability: 0.872
NCI-H2085; first compound 0.03162 µM
  relative viability: 0.86
NCI-H2085; first compound 0.1 µM
  relative viability: 0.917
NCI-H2085; first compound 0.3162 µM
  relative viability: 0.88
NCI-H2085; first compound 1 µM
  relative viability: 0.903
NCI-H2342; first compound 0.01 µM
  relative viability: 0.449
NCI-H2342; first compound 0.03162 µM
  relative viability: 0.393
NCI-H2342; first compound 0.1 µM
  relative viability: 0.496
NCI-H2342; first compound 0.3162 µM
  relative viability: 0.457
NCI-H2342; first compound 1 µM
  relative viability: 0.515
NCI-H358; first compound 0.01 µM
  relative viability: 0.872
NCI-H358; first compound 0.03162 µM
  relative viability: 0.64
NCI-H358; first compound 0.1 µM
  relative viability: 0.715
NCI-H358; first compound 0.3162 µM
  relative viability: 0.408
NCI-H358; first compound 1 µM
  relative viability: 0.212
NCI-H441; first compound 0.01 µM
  relative viability: 0.707
NCI-H441; first compound 0.03162 µM
  relative viability: 0.795
NCI-H441; first compound 0.1 µM
  relative viability: 0.675
NCI-H441; first compound 0.3162 µM
  relative viability: 0.555
NCI-H441; first compound 1 µM
  relative viability: 0.287
NCI-H460; first compound 0.01 µM
  relative viability: 0.441
NCI-H460; first compound 0.03162 µM
  relative viability: 0.35
NCI-H460; first compound 0.1 µM
  relative viability: 0.261
NCI-H460; first compound 0.3162 µM
  relative viability: 0.132
NCI-H460; first compound 1 µM
  relative viability: 0.0653
NCI-H838; first compound 0.01 µM
  relative viability: 0.86
NCI-H838; first compound 0.03162 µM
  relative viability: 0.774
NCI-H838; first compound 0.1 µM
  relative viability: 0.744
NCI-H838; first compound 0.3162 µM
  relative viability: 0.493
NCI-H838; first compound 1 µM
  relative viability: 0.169
